Earlier results as cited in patent publication US4032635A, “Pharmaceutical method for the therapy of immune diseases” (Zaidan Hojin Biseibutsu Kagaku Kenkyu Kai, priority 1975, dated 1977).

Legend:
histidine decarboxylase = conditions: cited from earlier work
[1] = test system: antibody formation, anaphylaxis or contact dermatitis; conditions: in vivo; cited from earlier work
[2] = test system: nucleic acid and/or protein synthesis; conditions: cited from earlier work
[3] = test system: experimental allergic encephalomyelitis (EAE); conditions: cited from earlier work
[4] = test system: autoimmune diseases, some infection allergies and dermatological contact allergies, transplantation immunological responses; conditions: in vivo; cited from earlier work
[5] = test system: humoral and cell-mediated immunities; conditions: cited from earlier work
[6] = test system: MS and related autoimmune diseases; conditions: long-term administration; cited from earlier work

For NNC(Cc1c[nH]cn1)C(=O)O (centres unmarked) [2-hydrazino-3-(4-imidazolyl)-propionic acid], the “inhibition of histidine decarboxylase” value (histidine decarboxylase) is listed as “inhibitor of histidine decarboxylase” and the “inhibition of antibody formation, anaphylaxis or contact dermatitis” value [1] is listed as “inhibits antibody formation, anaphylaxis or contact dermatitis”.

In the case of O=P1(N(CCCl)CCCl)NCCCO1 (centres unmarked) [cyclophosphamide], the “effect on nucleic acid and/or protein synthesis” value [2] is listed as “disrupt nucleic acid and/or protein synthesis”, the “EAE after discontinuation of the drug (known agents)” value ([3]; after discontinuation and following a latent period) is listed as “the animals often develop paralytic EAE” and the “suppression of development of EAE (known agents)” value ([3]; at such high doses as would cause toxicity) is listed as “can suppress the development of EAE”. For the same compound, the “effectiveness in therapy of autoimmune diseases, allergies, transplantation responses” value [4] was “effective in the therapy of autoimmune diseases, some infection allergies and dermatological contact allergies”, the “dose at which effective / cytotoxicity” value [5] was “effective in general only at near-lethal doses owing to their cytotoxicity” and the “inhibition of humoral and cell-mediated immunities” value [5] was “inhibit both humoral and cell-mediated immunities”.

In the case of CCOc1c(N)c2c(c(OCC)c1OCC)C(C1c3c(cc4c(c3OC)OCO4)CCN1C)OC2=O (centres unmarked) [tritoqualine], the “inhibition of histidine decarboxylase” value (histidine decarboxylase) is given as “inhibitor of histidine decarboxylase” and the “inhibition of antibody formation, anaphylaxis or contact dermatitis” value [1] is given as “inhibits antibody formation, anaphylaxis or contact dermatitis”.

In the case of “ACTH: presently applied to patients with MS and related autoimmune diseases (SYSMEHFRWGKPVGKKRRPVKVYPNGAEDESAEAFPLEF; Corticotropin; UniProt P01189 138-176, looked up)”, the “effects in patients with MS” value [6] is listed as “effects are limited due to serious side-effects caused by long-term administration of the drug”.
